Laboratory results taken from US20100248229A1, “INVITRO HUMAN EMBRYONIC MODEL AND A METHOD THEREOF” (Stempeutics Research Private Limited, priority 2007, published 2010).
Entries after “also recorded” stand apart in the source; their conditions may differ.

Assays:
EBs = test: In vitro 3-D embryo implantation model: attachment and outgrowth of EBs; type: cell-based, human; conditions: for degeneration, attachment and outgrowth of EBs in implantation model: high dose, 48 hrs; for ability of attached EBs to give rise to all lineages: lineage induction studies, in presence of the compound
Excerpt: An in vitro 3-dimensional (3-D) model/system for embryo implantation employing EBs in place of embryos was developed. The EBs collected on different days were subjected to implantation/attachment on the artificial substratum/surface.
To make this artificial surface regular tissue culture dishes or organ culture dishes were coated with about 1 to 2 mm thick coating of 0.5 to 1% low melting or high melting agarose in DPBS. A few wells of about 1 to 2 mm diameter are created using sterile paper disks, preferable in the center of the dish, which were removed after the agarose solidifies. Alternatively a horizontal tube like structure can be created by casting the gel over a fine glass capillary, which can be withdrawn as the agarose solidifies. This cavity/depression or tube like structure of agarose is then coated with matrix proteins like matrigel, collagen, fibronectin, laminin, gelatin etc. The coated agarose dishes were also layered with mouse or human endometrial stromal cells obtained from primary cultures or cell lines. The EBs were placed carefully in the cavity created or flushed inside the tube using a bent pasture pipette. The cells were cultured in normal standard EB media.
The EBs adhere and outgrows spreading out as a monolayer of cells on the extracellular matrix. Some cells invaded the surrounding agarose by day 10. A failure to implant/outgrow within ten days on this matrix after exposure to the drug/molecule indicates an abnormality. However, some drugs/could also support/enhance the process of attachment and outgrowth of the EBs. These molecules were screened for several other possible applications, though these may not necessarily be safe for embryonic development.
Four day old EBs were cultured on agarose and fibronectin coated surfaces. […] However, as Y27632 supports and enhances outgrowth, the effect of this drug on the expression profiles of the lineage markers and other genes needs to be screened for evaluating effect on normal development.
The model consists of a culture plate which is coated with Low melting (0.5%) agarose, A well of various depths is created in the agarose by various means eg: putting sterile filter paper disks while casting the gel and removing them latter. The gel is then coated with extracellular matrix components like fibronectin, collagen, laminin, etc. Human endometrial stromal fibroblast cell line CRL4003 is grown on this extracellular matrix as a monolayer. The spherical embryoid bodies or embryo like entities at day 4.5 are injected or pipetted into these cavities. The attachment is allowed in a culture media regularly used for hESC culture, without FGF2 supplementation (FIG. 1).
3. Lineage induction studies: The embryoid bodies after attachment to the implantation site differentiates to all lineages.
Method: Spherical Cytic EBs were collected on day 4.5 and exposed to the continuous presence of Y27632 (various doses were used). […] The control cytic EB had however just attached with smaller area of outgrowth showing that this dose of Y27632 can help in initial implantation of embryo during pregnancy.

HUES 9 EB = test: Expression profiles of lineage, pluripotency, epigenetic and imprinted genes in day 4.5 spherical EBs (HUES 9); type: cell-based, human; design: key: The sign ‘+’ indicates expression of the gene; the sign “−” indicates non-expression of the gene
Description: RT-PCR: Total RNA from cells was isolated using TRIZOL-LS Reagent (Invitrogen) as per the manufacturer's protocol. Complementary DNA was synthesized using the SuperScript III First-Strand Synthesis System (Invitrogen) as per the manufacturer's instructions. Polymerase Chain Reaction (PCR) was carried out using 1U Tag DNA Polymerase (Sigma) and MgCl2 to a final concentration of 1.5 mM in a total volume of 25 μl/reaction. β-actin and GAPDH were used as the housekeeping controls. PCR cycles consisted of an initial denaturation at 95° C. for 5 minutes followed by 35 amplification cycles of denaturation at 94° C. for 45 seconds, annealing for 45 seconds, and extension at 72° C. for 45 seconds and final extension at 72° C. for 10 minutes.
Examples of changes in the expression profiles/patterns of lineage markers, pluripotency markers, epigenetic markers and imprinted genes, in day 4.5 spherical cavitating/cytic embryoid bodies upon exposure to compounds like lipopolysaccharide (LPS), Rho kinase inhibitor (Y27632), Azacytidine (Aza), and biologicals like an Uvomorulin antibody (UVO) are given in the table nos. 9-12 below. The sign ‘+’ indicates expression of the gene and the sign “−” indicates non-expression of the gene.

[1] = HUES 9 EB DAY 4.5 RI (Y27632), control +
[2] = HUES 9 EB DAY 4.5 RI (Y27632), control −

In the case of C[S+](C)[O-] [DMSO], the “degeneration, attachment and outgrowth of EBs in implantation model” value (EBs) is reported as “degeneration of the EBs, and they failed to attach and outgrow” and the “ability of attached EBs to give rise to all lineages” value (EBs) is reported as “compromised”.
With Nc1ncn([C@@H]2O[C@H](CO)[C@@H](O)[C@H]2O)c(=O)n1 [5-Azacytidine] the BRACHURY gene expression (HUES 9 EB; HUES 9 EB D 4.5 AZA, control +) was “−”, the CDH1 gene expression (HUES 9 EB; HUES 9 EB D 4.5 AZA, control +) was “−” and the CDH13 gene expression (HUES 9 EB; HUES 9 EB D 4.5 AZA, control +) was “−”. For the same compound, the CDX2 gene expression (HUES 9 EB; HUES 9 EB D 4.5 AZA, control +) was “−”, the DLK1 gene expression (HUES 9 EB; HUES 9 EB D 4.5 AZA, control +) was “−” and the HOXD12 gene expression (HUES 9 EB; HUES 9 EB D 4.5 AZA, control +) was “−”. The NANOG gene expression (HUES 9 EB; HUES 9 EB D 4.5 AZA, control +) was “−”, the SDHD gene expression (HUES 9 EB; HUES 9 EB D 4.5 AZA, control +) was “−” and the TIMP3 gene expression (HUES 9 EB; HUES 9 EB D 4.5 AZA, control +) was “−”. For the same compound, the TNFR gene expression (HUES 9 EB; HUES 9 EB D 4.5 AZA, control +) was “−”, the hTERT gene expression (HUES 9 EB; HUES 9 EB D 4.5 AZA, control +) was “−” and the p53 gene expression (HUES 9 EB; HUES 9 EB D 4.5 AZA, control +) was “−”. The BMP-2 gene expression (HUES 9 EB; HUES 9 EB D 4.5 AZA, control −) was “−”, the CD44 gene expression (HUES 9 EB; HUES 9 EB D 4.5 AZA, control −) was “−” and the DPYS gene expression (HUES 9 EB; HUES 9 EB D 4.5 AZA, control −) was “+”. The H19 gene expression (HUES 9 EB; HUES 9 EB D 4.5 AZA, control −) was “−”, the OCT-4 gene expression (HUES 9 EB; HUES 9 EB D 4.5 AZA, control −) was “+” and the PTEN gene expression (HUES 9 EB; HUES 9 EB D 4.5 AZA, control −) was “−”. The “β-III TUBULIN gene expression” value (HUES 9 EB; HUES 9 EB D 4.5 AZA, control −) was “−” and the “degeneration, attachment and outgrowth of EBs in implantation model” value (EBs) was “degeneration of the EBs, and they failed to attach and outgrow”.
For OO [H2O2], the “ability of attached EBs to give rise to all lineages” value (EBs) was “compromised”.
In the case of C[C@@H](N)[C@H]1CC[C@H](C(=O)Nc2ccncc2)CC1 [Y27632], the BRACHURY gene expression (HUES 9 EB; [1]) is reported as “−”, the CDH1 gene expression (HUES 9 EB; [1]) is reported as “+” and the CDX-2 gene expression (HUES 9 EB; [1]) is reported as “−”. For the same compound, the DLK-1 gene expression (HUES 9 EB; [1]) was “−”, the HOXD11 gene expression (HUES 9 EB; [1]) was “+” and the HOXD12 gene expression (HUES 9 EB; [1]) was “−”. The SDHD gene expression (HUES 9 EB; [1]) was “−”, the TIMP3 gene expression (HUES 9 EB; [1]) was “−” and the hTERT gene expression (HUES 9 EB; [1]) was “−”. For the same compound, the p53 gene expression (HUES 9 EB; [1]) was “−”, the BMP-2 gene expression (HUES 9 EB; [2]) was “−” and the CD44 gene expression (HUES 9 EB; [2]) was “+”. For the same compound, the NOTCH gene expression (HUES 9 EB; [2]) was “+”, the OCT-4 gene expression (HUES 9 EB; [2]) was “+” and the PGR gene expression (HUES 9 EB; [2]) was “+”. The PTEN gene expression (HUES 9 EB; [2]) was “+”, the “TGF β gene expression” value (HUES 9 EB; [2]) was “+” and the TP73 gene expression (HUES 9 EB; [2]) was “+”. For the same compound, the “β-III TUBULIN gene expression” value (HUES 9 EB; [2]) was “+”, the “attachment and outgrowth of spheroid cavitating/cystic EB in implantation model” value (EBs; day 4.5 EBs, 20 μM, 48 hrs exposure) was “supportive/enhanced attachment; also recorded: attached and outgrown to a larger area” and the “attachment of EBs” value (EBs; four day old EBs on agarose and fibronectin coated surfaces, 20 μM, control attached from 4th day) was “enhanced attachment from day 2 onwards”.
